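Dose response: 5 concentrations. Exposure: 48 h. Format: 96-well plates. Endpoint: linear interpolation; highest concentration if not reached. Abbreviation: GI50, concentration required for 50% inhibition of growth.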 Active and inactive are the calls of the source. Rule as the data show it: active = GI50 up to about 1.1 µM and inactive = higher.
Experiments:
Assay in all cases: growth of human tumour cells (NCI), 48 h
786-0 = tested on: 786-0
A498 = tested on: A498
A549 = tested on: A549
ACHN = tested on: ACHN
BT-549 = tested on: BT-549
CAKI-1 = tested on: CAKI-1
COLO 205 = tested on: COLO 205
DU-145 = tested on: DU-145
EKVX = tested on: EKVX
HCC 2998 = tested on: HCC 2998
HCT-116 = tested on: HCT-116
HCT-15 = tested on: HCT-15
HOP-62 = tested on: HOP-62
HOP-92 = tested on: HOP-92
HT-29 = tested on: HT-29
Hs-578T = tested on: Hs-578T
IGROV-1 = tested on: IGROV-1
K562 = tested on: K562
KM12 = tested on: KM12
LOX IMVI = tested on: LOX IMVI
M14 = tested on: M14
MCF7 = tested on: MCF7
MDA-MB-231 = tested on: MDA-MB-231
MDA-MB-435 = tested on: MDA-MB-435
MDA-N = tested on: MDA-N
MOLT-4 = tested on: MOLT-4
Malme-3M = tested on: Malme-3M
NCI-H226 = tested on: NCI-H226
NCI-H23 = tested on: NCI-H23
NCI-H460 = tested on: NCI-H460
NCI-H522 = tested on: NCI-H522
NCI/ADR-RES = tested on: NCI/ADR-RES
OVCAR-3 = tested on: OVCAR-3
OVCAR-4 = tested on: OVCAR-4
OVCAR-5 = tested on: OVCAR-5
OVCAR-8 = tested on: OVCAR-8
PC-3 = tested on: PC-3
RPMI-8226 = tested on: RPMI-8226
RXF 393 = tested on: RXF 393
SF-268 = tested on: SF-268
SF-295 = tested on: SF-295
SF-539 = tested on: SF-539
SK-MEL-28 = tested on: SK-MEL-28
SK-MEL-2 = tested on: SK-MEL-2
SK-MEL-5 = tested on: SK-MEL-5
SK-OV-3 = tested on: SK-OV-3
SN12C = tested on: SN12C
SNB-19 = tested on: SNB-19
SNB-75 = tested on: SNB-75
SW-620 = tested on: SW-620
T47D = tested on: T47D
TK-10 = tested on: TK-10
U-251 = tested on: U-251
UACC-257 = tested on: UACC-257
UACC-62 = tested on: UACC-62
UO-31 = tested on: UO-31
CCRF-CEM = tested on: CCRF-CEM
HL-60 = tested on: HL-60

CC(=N/NC(=S)N(C)C)/C(=N\NC(=S)N(C)C)c1ccccc1
GI50 (786-0): 2000 nM (inactive) | GI50 (A498): 1590 nM (inactive) | GI50 (A549): 2760 nM (inactive) | GI50 (ACHN): 1710 nM (inactive) | GI50 (BT-549): 2170 nM (inactive) | GI50 (CAKI-1): 2530 nM (inactive) | GI50 (COLO 205): 1790 nM (inactive) | GI50 (DU-145): 5460 nM (inactive) | GI50 (EKVX): 1850 nM (inactive) | GI50 (HCC 2998): 989 nM (active) | GI50 (HCT-116): 2930 nM (inactive) | GI50 (HCT-15): 1210 nM | GI50 (HOP-62): 2240 nM (inactive) | GI50 (HOP-92): 1950 nM (inactive) | GI50 (HT-29): 3380 nM (inactive) | GI50 (Hs-578T): 3110 nM (inactive) | GI50 (IGROV-1): 1660 nM (inactive) | GI50 (K562): 5150 nM (inactive) | GI50 (KM12): 2150 nM (inactive) | GI50 (LOX IMVI): 3080 nM (inactive) | GI50 (M14): 1970 nM (inactive) | GI50 (MCF7): 2840 nM (inactive) | GI50 (MDA-MB-231): 3100 nM (inactive) | GI50 (MDA-MB-435): 1870 nM (inactive) | GI50 (MDA-N): 2110 nM (inactive) | GI50 (MOLT-4): 7160 nM (inactive) | GI50 (Malme-3M): 1750 nM (inactive) | GI50 (NCI-H226): 1710 nM (inactive) | GI50 (NCI-H23): 2320 nM (inactive) | GI50 (NCI-H460): 1000 nM (active) | GI50 (NCI-H522): 1780 nM (inactive) | GI50 (NCI/ADR-RES): 2470 nM (inactive) | GI50 (OVCAR-3): 1760 nM (inactive) | GI50 (OVCAR-4): 2020 nM (inactive) | GI50 (OVCAR-5): 2210 nM (inactive) | GI50 (OVCAR-8): 2020 nM (inactive) | GI50 (PC-3): 2000 nM (inactive) | GI50 (RPMI-8226): 2740 nM (inactive) | GI50 (RXF 393): 1460 nM (inactive) | GI50 (SF-268): 2070 nM (inactive) | GI50 (SF-295): 2080 nM (inactive) | GI50 (SF-539): 3660 nM (inactive) | GI50 (SK-MEL-28): 1900 nM (inactive) | GI50 (SK-MEL-2): 1990 nM (inactive) | GI50 (SK-MEL-5): 1640 nM (inactive) | GI50 (SK-OV-3): 1980 nM (inactive) | GI50 (SN12C): 1470 nM (inactive) | GI50 (SNB-19): 2560 nM (inactive) | GI50 (SNB-75): 2120 nM (inactive) | GI50 (SW-620): 1930 nM (inactive) | GI50 (T47D): 1650 nM (inactive) | GI50 (TK-10): 1590 nM (inactive) | GI50 (U-251): 2800 nM (inactive) | GI50 (UACC-257): 1980 nM (inactive) | GI50 (UACC-62): 1940 nM (inactive) | GI50 (UO-31): 2110 nM (inactive)

CCCCCCCCCC[C@H](O)[C@H](O)CC[C@@H](O)[C@H]1CC[C@@H]([C@H]2CC[C@H](CCCCCCC[C@@H](O)CC3=C[C@H](C)OC3=O)O2)O1
GI50 (786-0): 6300 nM (inactive) | GI50 (A498): 8970 nM (inactive) | GI50 (A549): 1840 nM (inactive) | GI50 (ACHN): 17400 nM (inactive) | GI50 (BT-549): 37500 nM (inactive) | GI50 (CAKI-1): 2250 nM (inactive) | GI50 (CCRF-CEM): 2520 nM (inactive) | GI50 (COLO 205): 1710 nM (inactive) | GI50 (DU-145): 4650 nM (inactive) | GI50 (EKVX): 1460 nM (inactive) | GI50 (HCC 2998): 18800 nM (inactive) | GI50 (HCT-116): 2640 nM (inactive) | GI50 (HCT-15): 3870 nM | GI50 (HL-60): 1900 nM (inactive) | GI50 (HOP-62): 2420 nM (inactive) | GI50 (HOP-92): 6320 nM (inactive) | GI50 (HT-29): 2200 nM (inactive) | GI50 (Hs-578T): 2790 nM (inactive) | GI50 (IGROV-1): 2720 nM (inactive) | GI50 (K562): 1700 nM (inactive) | GI50 (KM12): 2220 nM (inactive) | GI50 (LOX IMVI): 1330 nM (inactive) | GI50 (M14): 3340 nM (inactive) | GI50 (MCF7): 1160 nM (inactive) | GI50 (MDA-MB-231): 2310 nM (inactive) | GI50 (MDA-MB-435): 1310 nM (inactive) | GI50 (MDA-N): 2820 nM (inactive) | GI50 (MOLT-4): 2260 nM (inactive) | GI50 (Malme-3M): 15300 nM (inactive) | GI50 (NCI-H226): 1470 nM (inactive) | GI50 (NCI-H23): 7.46 nM (active) | GI50 (NCI-H460): 1820 nM (inactive) | GI50 (NCI-H522): 15100 nM (inactive) | GI50 (NCI/ADR-RES): 1250 nM (inactive) | GI50 (OVCAR-3): 1420 nM (inactive) | GI50 (OVCAR-4): 24400 nM (inactive) | GI50 (OVCAR-5): 6280 nM (inactive) | GI50 (OVCAR-8): 2950 nM (inactive) | GI50 (PC-3): 2230 nM (inactive) | GI50 (RPMI-8226): 820 nM (active) | GI50 (RXF 393): 4480 nM (inactive) | GI50 (SF-268): 2150 nM (inactive) | GI50 (SF-295): 1220 nM (inactive) | GI50 (SF-539): 4480 nM (inactive) | GI50 (SK-MEL-28): 2410 nM (inactive) | GI50 (SK-MEL-2): 1720 nM (inactive) | GI50 (SK-MEL-5): 1060 nM (active) | GI50 (SN12C): 4060 nM (inactive) | GI50 (SNB-19): 1840 nM (inactive) | GI50 (SNB-75): 2410 nM (inactive) | GI50 (SW-620): 2560 nM (inactive) | GI50 (T47D): 3160 nM (inactive) | GI50 (TK-10): 4950 nM (inactive) | GI50 (U-251): 41500 nM (inactive) | GI50 (UACC-257): 1550 nM (inactive) | GI50 (UACC-62): 1670 nM (inactive) | GI50 (UO-31): 1220 nM (inactive)

Reference: ChEMBL document CHEMBL1201862, “PubChem BioAssay data set” (2004)
